Assay results: paper PMC4052532, “Biodistribution and SPECT Imaging Study of ^99mTc Labeling NGR Peptide in Nude Mice Bearing Human HepG2 Hepatoma” (BioMed Research International, 2014)
Read-outs that look alike come from different tables or passages of the source. Where a SMILES comes first, the peptide text is derived from it. Bridges are numbered along the chain shown (N, C = ends).

Assays:
[1] = In vitro stability in PBS (radio-TLC); format: physicochemical; details: PBS pH 7.4, 37°C, 12 h incubation, percentage of parent tracer by radio-TLC
Method: (§1) The stability of ^99mTc-labeled NGR peptide in PBS and mouse serum at 37°C was studied at 1, 3, 6, and 12 h. Then the percentage of parent tracer was determined by radio-TLC (Table 1).

[2] = test system: HepG2 cells; experiment: Cell uptake study; format: cell-based, human; details: 37°C, ~370 kBq/well, gamma counter, n = 3, mean ± SD
Method: HepG2 cells were seeded into 48-well plates at a density of 2 × 10^5 cells per well 24 h prior to the experiment. HepG2 cells were then incubated with ^99mTc-labeled NGR peptides (~370 kBq/well) at 37°C for 15, 30, 60, 120, and 240 min. After incubation, tumor cells were washed three times with ice cold PBS and harvested by trypsinization with 0.25% trypsin/0.02% EDTA (Hyclone, USA). Cell suspensions were collected and measured in a gamma counter (Zhida, Shannxi, China). Cell uptake data was presented as percentage of total input radioactivity added to the culture medium after decay correction. Experiments were performed twice with triplicate wells.

[3] = Biodistribution studies; format: in vivo; details: female, BALB/c nude, mouse, total radioactivity; for tissue uptake at 1 h / tissue uptake at 4 h / tissue uptake at 8 h / tissue uptake at 12 h: n = 5, mean ± SD; for tissue uptake at 4 h: 4 h postinjection; for tissue uptake at 8 h: 8 h postinjection; for tissue uptake at 12 h: 12 h postinjection
Method: HepG2 cells were grown in high glucose DMEM culture medium. All cell lines were cultured in medium supplemented with 10% (v/v) fetal bovine serum (Gibco, USA), 1% mycillin, and 1% Glutamine (Beyotime, China) at 37°C in a humidified atmosphere with 5% CO2. Using female BALB/c nude mice (4–6 weeks of age), HepG2 tumor model was established by subcutaneous injection of 2 × 10^6 HepG2 tumor cells (0.1 mL) into the right upper flanks. When the tumor volume reached 0.8~1.0 cm in diameter (2-3 weeks after inoculation), the tumor-bearing mice were used for SPECT imaging and biodistribution studies. All animal studies were approved by Clinical Center at the FMMU.
Nude mice bearing human HepG2 hepatoma were randomly divided into 5 groups and injected with ~7.4 MBq of ^99mTc-NGR with or without excess unlabelled NGR peptide (20 mg/kg). After injection of the tracer, mice were sacrificed and dissected. The radioactivity in the HepG2 tumor, major organs, and muscle were collected and weighed wet with tubes (%ID/g). Mean uptake (%ID/g) for a group of animals was calculated with standard deviations. Values were expressed as mean ± SD (n = 5/group).

[4] = In vitro stability in mouse serum (radio-TLC); format: in vitro ADME; details: 37°C, 12 h incubation, percentage of parent tracer by radio-TLC, read-out: ^99mTc-NGR peptide remained intact
Method: as §1

[5] = blood, iv, ~7.4 MBq i.v., read-out: Blood uptake
[6] = heart, iv, ~7.4 MBq i.v., read-out: Heart uptake
[7] = intestine, iv, ~7.4 MBq i.v., read-out: Intestine uptake
[8] = iv, HepG2 tumor, ~7.4 MBq i.v., read-out: Tumor uptake
[9] = kidney, iv, ~7.4 MBq i.v., read-out: Kidney uptake
[10] = liver, iv, ~7.4 MBq i.v., read-out: Liver uptake
[11] = lung, iv, ~7.4 MBq i.v., read-out: Lung uptake
[12] = muscle, iv, ~7.4 MBq i.v., read-out: Muscle uptake
[13] = spleen, iv, ~7.4 MBq i.v., read-out: Spleen uptake
[14] = stomach, iv, ~7.4 MBq i.v., read-out: Stomach uptake

^99mTc-NGR peptide remained intact [1]: ~92%
tissue uptake at 1 h ([3]; blood, iv, 1 h postinjection, ~7.4 MBq i.v., read-out: Blood uptake): 3.82 ± 0.41 %ID/g
tissue uptake at 4 h [3, 5]: 1.75 ± 0.39 %ID/g
tissue uptake at 8 h [3, 5]: 0.98 ± 0.22 %ID/g
tissue uptake at 12 h [3, 5]: 0.75 ± 0.31 %ID/g
tissue uptake at 1 h ([3]; blood, iv, Blocking (1 h), coinjection of unlabelled NGR 20 mg/kg, read-out: Blood uptake): 2.56 ± 0.34 %ID/g
tissue uptake at 1 h ([3]; heart, iv, 1 h postinjection, ~7.4 MBq i.v., read-out: Heart uptake): 3.74 ± 0.54 %ID/g
tissue uptake at 4 h [3, 6]: 2.26 ± 0.33 %ID/g
tissue uptake at 8 h [3, 6]: 1.15 ± 0.32 %ID/g
tissue uptake at 12 h [3, 6]: 1.07 ± 0.25 %ID/g
tissue uptake at 1 h ([3]; heart, iv, Blocking (1 h), coinjection of unlabelled NGR 20 mg/kg, read-out: Heart uptake): 2.73 ± 0.29 %ID/g
tissue uptake at 1 h ([3]; intestine, iv, 1 h postinjection, ~7.4 MBq i.v., read-out: Intestine uptake): 2.65 ± 1.06 %ID/g
tissue uptake at 4 h [3, 7]: 2.18 ± 0.96 %ID/g
tissue uptake at 8 h [3, 7]: 1.93 ± 0.22 %ID/g
tissue uptake at 12 h [3, 7]: 1.6 ± 0.27 %ID/g
tissue uptake at 1 h ([3]; intestine, iv, Blocking (1 h), coinjection of unlabelled NGR 20 mg/kg, read-out: Intestine uptake): 2.4 ± 0.59 %ID/g
tissue uptake at 1 h ([3]; iv, HepG2 tumor, 1 h postinjection, ~7.4 MBq i.v., read-out: Tumor uptake): 2.52 ± 0.83 %ID/g
tissue uptake at 4 h [3, 8]: 3.03 ± 0.71 %ID/g
tissue uptake at 8 h [3, 8]: 3.26 ± 0.63 %ID/g
tissue uptake at 12 h [3, 8]: 2.81 ± 0.25 %ID/g
tissue uptake at 1 h ([3]; iv, HepG2 tumor, Blocking (1 h), coinjection of unlabelled NGR 20 mg/kg, read-out: Tumor uptake): 1.65 ± 0.61 %ID/g
tissue uptake at 1 h ([3]; kidney, iv, 1 h postinjection, ~7.4 MBq i.v., read-out: Kidney uptake): 7.93 ± 2.13 %ID/g
tissue uptake at 4 h [3, 9]: 7.03 ± 0.95 %ID/g
tissue uptake at 8 h [3, 9]: 6.21 ± 0.43 %ID/g
tissue uptake at 12 h [3, 9]: 5.96 ± 0.41 %ID/g
tissue uptake at 1 h ([3]; kidney, Blocking (1 h), coinjection of unlabelled NGR 20 mg/kg, read-out: Kidney uptake): 5.03 ± 0.97 %ID/g
tissue uptake at 1 h ([3]; liver, iv, 1 h postinjection, ~7.4 MBq i.v., read-out: Liver uptake): 4.07 ± 0.76 %ID/g
tissue uptake at 4 h [3, 10]: 3.85 ± 0.73 %ID/g
tissue uptake at 8 h [3, 10]: 3.44 ± 0.52 %ID/g
tissue uptake at 12 h [3, 10]: 3.26 ± 0.47 %ID/g
tissue uptake at 1 h ([3]; liver, Blocking (1 h), coinjection of unlabelled NGR 20 mg/kg, read-out: Liver uptake): 3.27 ± 0.16 %ID/g
tissue uptake at 4 h [3, 11]: 2.13 ± 0.44 %ID/g
tissue uptake at 8 h [3, 11]: 1.86 ± 0.38 %ID/g
tissue uptake at 12 h [3, 11]: 1.21 ± 0.31 %ID/g
tissue uptake at 1 h ([3]; lung, iv, Blocking (1 h), coinjection of unlabelled NGR 20 mg/kg, read-out: Lung uptake): 2.04 ± 0.28 %ID/g
tissue uptake at 1 h ([3]; muscle, iv, 1 h postinjection, ~7.4 MBq i.v., read-out: Muscle uptake): 0.53 ± 0.33 %ID/g
tissue uptake at 4 h [3, 12]: 0.46 ± 0.11 %ID/g
tissue uptake at 8 h [3, 12]: 0.43 ± 0.14 %ID/g
tissue uptake at 12 h [3, 12]: 0.39 ± 0.22 %ID/g
tissue uptake at 1 h ([3]; muscle, iv, Blocking (1 h), coinjection of unlabelled NGR 20 mg/kg, read-out: Muscle uptake): 0.48 ± 0.27 %ID/g
tissue uptake at 1 h ([3]; spleen, iv, 1 h postinjection, ~7.4 MBq i.v., read-out: Spleen uptake): 2.37 ± 0.43 %ID/g
tissue uptake at 4 h [3, 13]: 2.09 ± 0.6 %ID/g
tissue uptake at 8 h [3, 13]: 1.88 ± 0.42 %ID/g
tissue uptake at 12 h [3, 13]: 1.72 ± 0.37 %ID/g
tissue uptake at 1 h ([3]; spleen, Blocking (1 h), coinjection of unlabelled NGR 20 mg/kg, read-out: Spleen uptake): 1.89 ± 0.22 %ID/g
tissue uptake at 1 h ([3]; stomach, iv, 1 h postinjection, ~7.4 MBq i.v., read-out: Stomach uptake): 3.07 ± 0.56 %ID/g
tissue uptake at 4 h [3, 14]: 2.2 ± 0.26 %ID/g
tissue uptake at 8 h [3, 14]: 1.61 ± 0.39 %ID/g
tissue uptake at 12 h [3, 14]: 1.56 ± 0.32 %ID/g
tissue uptake at 1 h ([3]; stomach, Blocking (1 h), coinjection of unlabelled NGR 20 mg/kg, read-out: Stomach uptake): 3.41 ± 0.31 %ID/g
tissue to tissue ratio at 1 h ([3]; tumor/kidney, iv, 7.4 MBq, 1 h postinjection, read-out: Tumor-to-normal tissue uptake ratio T/K): 0.32 ± 0.15
tissue to tissue ratio at 1 h ([3]; tumor/liver, iv, 7.4 MBq, 1 h postinjection, read-out: Tumor-to-normal tissue uptake ratio T/L): 0.62 ± 0.33
tissue to tissue ratio at 1 h ([3]; tumor/muscle, iv, 7.4 MBq, 1 h postinjection, read-out: Tumor-to-normal tissue uptake ratio T/M): 4.75 ± 0.91
tissue to tissue ratio at 8 h ([3]; tumor/muscle, iv, 7.4 MBq, 8 h (highest value), read-out: tumor/muscle (T/NT) value): 7.58 ± 1.92
remaining at 12 h [4]: ~92%
SMILES: N=C(N)NCCC[C@@H]1NC(=O)CNC(=O)[C@H](CC(N)=O)NC(=O)[C@@H](NC(=O)CNC(=O)CNC(=O)[C@@H](N)Cc2ccc(O)cc2)CSSC[C@@H](C(=O)O)NC1=O [^99mTc-NGR, metal not drawn] (H-YGGCNGRC-OH; disulfide 4-8)
uptake in HepG2 cells (percentage of total input radioactivity) ([2]; 15 min): about 0.49 ± 0.05%
uptake in HepG2 cells (percentage of total input radioactivity) ([2]; 2 h (maximum)): 1.52 ± 0.13%
uptake in HepG2 cells (percentage of total input radioactivity) ([2]; 4 h): About 1.35 ± 0.27%
